Laboratory results as given in publication PMC3959898 (Molecular microbiology, 2014).

Tests used:
CqsSVh = target: T1, CqsSVh (Vibrio campbellii, UniProt A7N6S2); assay: V. harveyi bioluminescent reporter strain expressing cqsSVh; format: cell-based, Vibrio harveyi
T1 sequence (A7N6S2 1-681): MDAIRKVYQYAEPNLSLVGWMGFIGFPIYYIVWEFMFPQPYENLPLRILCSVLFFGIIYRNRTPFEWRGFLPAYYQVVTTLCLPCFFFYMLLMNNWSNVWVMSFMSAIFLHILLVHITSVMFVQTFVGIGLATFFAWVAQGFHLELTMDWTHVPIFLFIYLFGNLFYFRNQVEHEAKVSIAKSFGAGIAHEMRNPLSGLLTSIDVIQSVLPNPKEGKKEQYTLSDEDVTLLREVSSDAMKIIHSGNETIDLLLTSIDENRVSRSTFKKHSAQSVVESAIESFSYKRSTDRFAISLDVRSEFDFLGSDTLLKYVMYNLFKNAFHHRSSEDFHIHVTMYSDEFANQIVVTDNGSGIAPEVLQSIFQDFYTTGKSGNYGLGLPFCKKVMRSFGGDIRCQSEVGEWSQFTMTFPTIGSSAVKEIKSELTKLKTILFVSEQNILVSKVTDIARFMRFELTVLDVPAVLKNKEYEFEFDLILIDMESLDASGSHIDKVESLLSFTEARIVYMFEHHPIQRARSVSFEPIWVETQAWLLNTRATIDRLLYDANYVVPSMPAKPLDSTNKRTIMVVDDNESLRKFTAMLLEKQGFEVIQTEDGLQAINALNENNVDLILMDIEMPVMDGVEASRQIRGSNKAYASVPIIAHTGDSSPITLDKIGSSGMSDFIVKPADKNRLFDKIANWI

CqsSPa = assay: V. harveyi bioluminescent reporter strain expressing cqsSPa; format: cell-based, Photobacterium angustum; conditions: for EC50: dose-dependent bioluminescence response
CqsSPa^S168C = format: cell-based, Photobacterium angustum; conditions: Fig. S2
CqsSVc = CqsSVc (Vibrio cholerae serotype O1, UniProt Q9KM66); assay: V. harveyi bioluminescent reporter strain expressing cqsSVc; format: cell-based
Sequence of CqsSVc (Q9KM66 whole entry, looked up): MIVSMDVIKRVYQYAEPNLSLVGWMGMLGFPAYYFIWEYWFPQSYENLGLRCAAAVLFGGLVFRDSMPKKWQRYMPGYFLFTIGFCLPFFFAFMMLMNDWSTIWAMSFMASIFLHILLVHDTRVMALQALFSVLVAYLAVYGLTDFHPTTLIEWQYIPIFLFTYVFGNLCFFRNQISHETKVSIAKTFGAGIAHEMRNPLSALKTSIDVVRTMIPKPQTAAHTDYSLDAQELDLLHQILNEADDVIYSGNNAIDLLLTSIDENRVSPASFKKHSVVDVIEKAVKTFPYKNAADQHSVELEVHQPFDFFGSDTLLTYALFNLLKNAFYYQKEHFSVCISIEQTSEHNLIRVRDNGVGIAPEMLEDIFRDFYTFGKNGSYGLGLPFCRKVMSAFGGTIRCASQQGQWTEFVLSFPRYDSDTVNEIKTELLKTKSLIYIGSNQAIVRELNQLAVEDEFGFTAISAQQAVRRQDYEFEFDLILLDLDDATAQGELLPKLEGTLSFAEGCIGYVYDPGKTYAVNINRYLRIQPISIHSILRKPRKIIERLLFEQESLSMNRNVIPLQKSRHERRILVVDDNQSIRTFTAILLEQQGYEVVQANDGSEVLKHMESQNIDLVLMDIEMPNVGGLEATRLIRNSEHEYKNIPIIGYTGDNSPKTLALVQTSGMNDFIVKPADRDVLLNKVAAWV

`C/C=C(\N)C(=O)CCCCCCC` [Ea-C8-CAI-1, (Z)-3-aminoundec-2-en-4-one] was tested, and the EC50 (CqsSVh) was 100 nM, the light production (CqsSVh; reporter carrying cqsSVh, synthetic molecule at 5 μM) was “produced light” and the “response (light production) in dose-response” value (CqsSPa; reporter expressing CqsSPa) was “modest response”.
With `C/C=C(\N)C(=O)CCCCCCCCC` [Ea-C10-CAI-1] the “detection of CAI-1 molecules” value (CqsSPa^S168C) was “retained the ability to detect”, the EC50 (CqsSPa; reporter expressing CqsSPa) was 4 nM and the EC50 (CqsSVc) was 150 nM.
`CCCCCCCCCC(=O)[C@@H](O)CC` [C10-CAI-1, (S)-3-hydroxytridecan-4-one] was tested, and the “detection of CAI-1 molecules” value (CqsSPa^S168C) was “retained the ability to detect”, the EC50 (CqsSPa; reporter expressing CqsSPa) was 12 nM and the “increase in light production” value (CqsSPa; reporter carrying cqsSPa, synthetic molecule at 5 μM) was ~ 1000 fold.
